≈ marks a conversion by molar mass, not a printed value. Read-outs that look alike come from different tables or passages of the source.
System: S. aureus
Experiment: MIC (microbroth dilution)
Assay type: cell-based, Staphylococcus aureus
Conditions: Staphylococcus aureus
Procedure: All bacteria were maintained on tryptic soy agar (TSA), except Streptococcus spp., which were maintained on Columbia agar plates containing 5% horse blood. […] Bacteria were grown to stationary phase in liquid culture overnight, with shaking at 200 rpm, before being back diluted to the relevant starting concentration for each assay below. MICs were measured by the microbroth dilution method. […] Absorbance at OD600 was read on a CLARIOstar spectrophotometer (BMG Labtech) and the MIC was defined as the minimum concentration of compound where no visible growth was detected. […] MICs were also performed in the presence of the outer membrane permeator, polymyxin b nonapeptide (PMBN) following the same MIC method but with the following variation. The 2-fold dilution series of compound was prepared as above, then 50 μL of PMBN at a final concentration of 30 μg/mL was added to relevant wells, while 50 μL/well of blank media was added to the remaining wells. Bacteria were then added at 50 μL/well for a starting concentration as above. […] The MICs were read and defined as above. All animal procedures were performed by the contract research organization Pharmacology Discovery Services Taiwan in accordance with the Guide for the Care and Use of Laboratory Animals. The procedures were approved by the Institutional Ethics Committee of Pharmacology Discovery Services Taiwan, Ltd. (approval no. AB127662), in compliance with animal welfare legislation in Taiwan.

[1] = ATCC9144, ATCC 9144, read-out: MIC
[2] = NCTC13277, NCTC 13277, read-out: MIC
[3] = NCTC13616, NCTC 13616, read-out: MIC

Compound: CCn1cc(C(=O)O)c(=O)c2cc(F)c(N3CCNCC3)cc21 [Compound 2, norfloxacin, reference compound]
- MIC [1]: 2 µg/mL (≈ 6.26 µM)
- MIC [2]: > 128 µg/mL
- MIC [3]: > 128 µg/mL

Compound: CCn1cc(C(=O)O)c(=O)c2cc(F)c(N3CCNCC3)nc21 [Compound 3, enoxacin, reference compound]
- MIC [1]: 2 µg/mL (≈ 6.24 µM)
- MIC [2]: 128 µg/mL (≈ 400 µM)
- MIC [3]: > 128 µg/mL

Compound: CCn1cc(C(=O)O)c(=O)c2cc(F)c(N3CCN(Cc4cccc5ccccc45)CC3)cc21 [Compound 20, 1-Ethyl-6-fluoro-7-(4-(naphthalen-1-ylmethyl)piperazin-1-yl)-4-oxo-1,4-dihydroquinoline-3-carboxylic acid]
- MIC [1]: 1 µg/mL (≈ 2.18 µM)
- MIC [2]: 2 µg/mL (≈ 4.35 µM)
- MIC [3]: 2 µg/mL (≈ 4.35 µM)

Compound: CCn1cc(C(=O)O)c(=O)c2cc(F)c(N3CCN(Cc4cccc5ccccc45)CC3)nc21 [Compound 21, 1-Ethyl-6-fluoro-7-(4-(naphthalen-1-ylmethyl)piperazin-1-yl)-4-oxo-1,4-dihydro-1,8-naphthyridine-3-carboxylic acid]
- MIC [1]: 0.5 to 1 µg/mL (≈ 1.09 to 2.17 µM)
- MIC [2]: 2 to 4 µg/mL (≈ 4.34 to 8.69 µM)
- MIC [3]: 2 to 8 µg/mL (≈ 4.34 to 17.4 µM)

Compound: C[C@H]1COc2c(N3CCN(Cc4cccc5ccccc45)CC3)c(F)cc3c(=O)c(C(=O)O)cn1c23 [Compound 22, (S)-9-Fluoro-3-methyl-10-(4-(naphthalen-1-ylmethyl)piperazin-1-yl)-7-oxo-2,3-dihydro-7H-[1,4]oxazino[2,3,4-ij]quinoline-6-carboxylic acid]
- MIC [1]: 0.125 to 1 µg/mL (≈ 0.256 to 2.05 µM)
- MIC [2]: 2 to 4 µg/mL (≈ 4.1 to 8.2 µM)
- MIC [3]: 4 µg/mL (≈ 8.2 µM)
- MIC (SA-1199, read-out: MIC): 0.25 µg/mL (≈ 0.513 µM)
- MIC (SA-1199B (NorA-overexpressing)): 0.5 µg/mL (≈ 1.03 µM)

Compound: O=C(O)c1cn(C2CC2)c2cc(N3CCN(Cc4ccc5ccccc5c4)CC3)c(F)cc2c1=O [Compound 23, 1-Cyclopropyl-6-fluoro-7-(4-(naphthalen-2-ylmethyl)piperazin-1-yl)-4-oxo-1,4-dihydroquinoline-3-carboxylic acid]
- MIC [1]: 0.125 µg/mL (≈ 0.265 µM)
- MIC [2]: 2 µg/mL (≈ 4.24 µM)
- MIC [3]: 2 µg/mL (≈ 4.24 µM)

Compound: CCn1cc(C(=O)O)c(=O)c2cc(F)c(N3CCN(Cc4ccc5ccccc5c4)CC3)cc21 [Compound 24, 1-Ethyl-6-fluoro-7-(4-(naphthalen-2-ylmethyl)piperazin-1-yl)-4-oxo-1,4-dihydroquinoline-3-carboxylic acid]
- MIC [1]: 0.25 µg/mL (≈ 0.544 µM)
- MIC [2]: 4 µg/mL (≈ 8.7 µM)
- MIC [3]: 4 µg/mL (≈ 8.7 µM)

Compound: O=C(O)c1cn(C2CC2)c2cc(N3CCN(Cc4ccccc4)CC3)c(F)cc2c1=O [Compound 25, 7-(4-Benzylpiperazin-1-yl)-1-cyclopropyl-6-fluoro-4-oxo-1,4-dihydro quinoline-3-carboxylic acid]
- MIC [1]: 0.125 to 0.25 µg/mL (≈ 0.297 to 0.593 µM)
- MIC [2]: 32 µg/mL (≈ 75.9 µM)
- MIC [3]: 16 to 32 µg/mL (≈ 38 to 75.9 µM)

Compound: CCn1cc(C(=O)O)c(=O)c2cc(F)c(N3CCN(Cc4ccccc4)CC3)cc21 [Compound 26, 7-(4-Benzylpiperazin-1-yl)-1-ethyl-6-fluoro-4-oxo-1,4-dihydroquinoline-3-carboxylic acid]
- MIC [1]: 0.25 µg/mL (≈ 0.611 µM)
- MIC [2]: 16 to 32 µg/mL (≈ 39.1 to 78.2 µM)
- MIC [3]: 16 µg/mL (≈ 39.1 µM)

Compound: O=C(O)c1cn(C2CC2)c2cc(N3CCN(Cc4cccc5cccnc45)CC3)c(F)cc2c1=O [Compound 27, 1-Cyclopropyl-6-fluoro-4-oxo-7-(4-(quinolin-8-ylmethyl)piperazin-1-yl)-1,4-dihydroquinoline-3-carboxylic acid]
- MIC [1]: 0.5 µg/mL (≈ 1.06 µM)
- MIC [2]: 128 µg/mL (≈ 271 µM)
- MIC [3]: 64 µg/mL (≈ 135 µM)
- MIC (SA-1199, read-out: MIC): 0.125 µg/mL (≈ 0.265 µM)
- MIC (SA-1199B (NorA-overexpressing)): 0.25 µg/mL (≈ 0.529 µM)

Compound: CCn1cc(C(=O)O)c(=O)c2cc(F)c(N3CCN(Cc4cccc5cccnc45)CC3)cc21 [Compound 28, 1-Ethyl-6-fluoro-4-oxo-7-(4-(quinolin-8-ylmethyl)piperazin-1-yl)-1,4-dihydroquinoline-3-carboxylic acid]
- MIC [1]: 1 µg/mL (≈ 2.17 µM)
- MIC [2]: 128 µg/mL (≈ 278 µM)
- MIC [3]: 128 µg/mL (≈ 278 µM)

Compound: O=C(O)c1cn(C2CC2)c2cc(N3CCN(Cc4cccc5c4CCCC5)CC3)c(F)cc2c1=O [Compound 29, 1-Cyclopropyl-6-fluoro-4-oxo-7-(4-((5,6,7,8-tetrahydronaphthalen-1-yl)methyl)piperazin-1-yl)-1,4-dihydroquinoline-3-carboxylic acid]
- MIC [1]: 0.25 to 1 µg/mL (≈ 0.526 to 2.1 µM)
- MIC [2]: 1 to 2 µg/mL (≈ 2.1 to 4.21 µM)
- MIC [3]: 1 µg/mL (≈ 2.1 µM)
- MIC (SA-1199, read-out: MIC): 0.5 µg/mL (≈ 1.05 µM)
- MIC (SA-1199B (NorA-overexpressing)): 0.5 µg/mL (≈ 1.05 µM)

Compound: CCn1cc(C(=O)O)c(=O)c2cc(F)c(N3CCN(Cc4cccc5c4CCCC5)CC3)cc21 [Compound 30, 1-Ethyl-6-fluoro-4-oxo-7-(4-((5,6,7,8-tetrahydronaphthalen-1-yl)methyl)piperazin-1-yl)-1,4-dihydroquinoline-3-carboxylic acid]
- MIC [1]: 1 µg/mL (≈ 2.16 µM)
- MIC [2]: 2 µg/mL (≈ 4.31 µM)
- MIC [3]: 2 µg/mL (≈ 4.31 µM)
- MIC (SA-1199, read-out: MIC): 0.25 µg/mL (≈ 0.539 µM)
- MIC (SA-1199B (NorA-overexpressing)): 0.5 µg/mL (≈ 1.08 µM)

Compound: CN(C)c1ccc(CN2CCN(c3cc4c(cc3F)c(=O)c(C(=O)O)cn4C3CC3)CC2)cc1 [Compound 31, 1-Cyclopropyl-7-(4-(4-(dimethylamino)benzyl)piperazin-1-yl)-6-fluoro-4-oxo-1,4-dihydroquinoline-3-carboxylic acid]
- MIC [1]: 0.06 to 0.125 µg/mL (≈ 0.129 to 0.269 µM)
- MIC [2]: 16 to 32 µg/mL (≈ 34.4 to 68.9 µM)
- MIC [3]: 8 to 16 µg/mL (≈ 17.2 to 34.4 µM)
- MIC (SA-1199, read-out: MIC): 0.125 µg/mL (≈ 0.269 µM)
- MIC (SA-1199B (NorA-overexpressing)): 0.25 µg/mL (≈ 0.538 µM)

Compound: CCn1cc(C(=O)O)c(=O)c2cc(F)c(N3CCN(Cc4ccc(N(C)C)cc4)CC3)cc21 [Compound 32, 7-(4-(4-(Dimethylamino)benzyl)piperazin-1-yl)-1-ethyl-6-fluoro-4-oxo-1,4-dihydroquinoline-3-carboxylic acid]
- MIC [1]: 0.125 to 0.25 µg/mL (≈ 0.276 to 0.552 µM)
- MIC [2]: > 32 µg/mL
- MIC [3]: 16 to 32 µg/mL (≈ 35.4 to 70.7 µM)

Compound: CCn1cc(C(=O)O)c(=O)c2cc(F)c(N3CCN(Cc4cccc5c4OCO5)CC3)cc21 [Compound 34, 7-(4-(Benzo[d][1,3]dioxol-4-ylmethyl)piperazin-1-yl)-1-ethyl-6-fluoro-4-oxo-1,4-dihydroquinoline-3-carboxylic acid]
- MIC [1]: 0.5 µg/mL (≈ 1.1 µM)
- MIC [2]: > 32 µg/mL
- MIC [3]: > 32 µg/mL

Compound: O=C(O)c1cn(C2CC2)c2cc(N3CCN(Cc4ccc(F)c5ccccc45)CC3)c(F)cc2c1=O [Compound 35, 1-Cyclopropyl-6-fluoro-7-(4-((4-fluoronaphthalen-1-yl)methyl)piperazin-1-yl)-4-oxo-1,4-dihydroquinoline-3-carboxylic acid]
- MIC [1]: 4 µg/mL (≈ 8.17 µM)
- MIC [2]: 8 µg/mL (≈ 16.3 µM)
- MIC [3]: 4 µg/mL (≈ 8.17 µM)

Compound: CCn1cc(C(=O)O)c(=O)c2cc(F)c(N3CCN(Cc4ccc(F)c5ccccc45)CC3)cc21 [Compound 36, 1-Ethyl-6-fluoro-7-(4-((4-fluoronaphthalen-1-yl)methyl)piperazin-1-yl)-4-oxo-1,4-dihydroquinoline-3-carboxylic acid]
- MIC [1]: 8 µg/mL (≈ 16.8 µM)
- MIC [2]: 8 µg/mL (≈ 16.8 µM)
- MIC [3]: 8 µg/mL (≈ 16.8 µM)

Compound: O=C(O)c1cn(C2CC2)c2cc(N3CCN(Cc4cccc5ccsc45)CC3)c(F)cc2c1=O [Compound 37, 7-(4-(Benzo[b]thiophen-7-ylmethyl)piperazin-1-yl)-1-cyclopropyl-6-fluoro-4-oxo-1,4-dihydroquinoline-3-carboxylic acid]
- MIC [1]: < 0.125 µg/mL
- MIC [2]: 2 µg/mL (≈ 4.19 µM)
- MIC [3]: 2 µg/mL (≈ 4.19 µM)

Compound: CCn1cc(C(=O)O)c(=O)c2cc(F)c(N3CCN(Cc4cccc5ccsc45)CC3)cc21 [Compound 38, 7-(4-(Benzo[b]thiophen-7-ylmethyl)piperazin-1-yl)-1-ethyl-6-fluoro-4-oxo-1,4-dihydroquinoline-3-carboxylic acid]
- MIC [1]: 0.25 µg/mL (≈ 0.537 µM)
- MIC [2]: 2 µg/mL (≈ 4.3 µM)
- MIC [3]: 2 µg/mL (≈ 4.3 µM)

Compound: O=C(O)c1cn(C2CC2)c2cc(N3CCN(Cc4ccc(-c5ccccc5)cc4)CC3)c(F)cc2c1=O [Compound 39, 7-(4-([1,1’-Biphenyl]-4-ylmethyl)piperazin-1-yl)-1-cyclopropyl-6-fluoro-4-oxo-1,4-dihydroquinoline-3-carboxylic acid]
- MIC [1]: 1 µg/mL (≈ 2.01 µM)
- MIC [2]: 2 µg/mL (≈ 4.02 µM)
- MIC [3]: 2 µg/mL (≈ 4.02 µM)
